Results taken from publication PMC6326999, “Functionalized Magnetic Bacterial Cellulose Beads as Carrier for Lecitase® Ultra Immobilization” (Applied Biochemistry and Biotechnology, 2018).

Tested on: T1, Lecitase® Ultra (LU)
T1 construct: gene LIP; commercial preparation (Sigma-Aldrich), free enzyme
Test: absorbance at […] nm, hydrolysis initial rates, non-linear Michaelis-Menten fit
Type: biochemical
Conditions: free enzyme; 50 mM Tris-Cl pH 8.5, 0.25% Triton X-100, 30 °C (standard assay); commercial preparation; kcat column headed 'Kcat × 10^3 (s^-1)'

## CCCCCCCCCCCCCCCC(=O)Oc1ccc([N+](=O)[O-])cc1 [4-nitrophenol palmitate]
  Km: 450 ± 50 µM
